Holding throughout (type): cell-based, human
For assay [1], the system named is MCF-7 Breast Cancer Cell Line. The experiment in a line: MTT cytotoxicity assay, transfected MCF-7 cells plus chemotherapeutic drug. As to conditions: for fold change of EC50, Prohibitin vs Control: direction IS/IR in same cell (E42); for sensitivity to drug of prohibitin siRNA treated cells: MCF-7, FIGS. 15A-15H. On the procedure:
(§1) For a typical siRNA transfection, 1 nmole of the annealed siRNA duplex was mixed with 1.4 ml of Opti-MEM reagent (Invitrogen). In another tube, […] of Oligofectamine reagent (Invitrogen, Carlsbad, Calif.) was mixed with […] of Opti-MEM. The two solutions were combined and mixed gently by inversion and incubated for 20 min. at RT. The resulting solution was added to the cultured cells drop by drop in a 10 cm dish (cells are approximately 40-50% confluent). The next day the transfected cells were trypsinized and seeded in 6 or 96-well plates and further incubated for the indicated amount of time (assay dependent) before further analysis.
(§2) Cell survival was determined using the MTT cytotoxicity assay (see, e.g., Tokuyama et al. (2005) Anticancer Res. 25(1A): 17-22). RNA-transfected cells were seeded in triplicate into 96-well plates at 5×10^3 cells/well 48 hrs post-transfection. The cells were incubated for an additional 16 to 24 hrs before they were exposed to increasing concentrations of cytotoxic drugs. Doxorubicin (adriamycin), cisplatinum, taxol, vinblastin, vincristin, and mitoxantrone were all purchased from Sigma Corp. (St. Louis, Mo.). […] Appropriate dilutions were made in the respective media for each cell line. Following addition of drugs, incubation was continued for an additional 72 hrs. […] of MTT dye (5 mg/ml) were added into each well and the plate was further incubated at 37° C. for 4 hrs. The dye was solubilized with 10% Triton X-100, 0.01 N HCl and further incubated at 37° C. in the dark for 30 min. Cell viability was determined by measure of absorption at 570 nm in a Wallac multiwell plate reader (PerkinElmer, Inc., Boston, Mass.). The averages of triplicate wells were plotted using the Prism software (GraphPad Software, Inc., San Diego, Calif.).
Cell survival was determined as described in Example 3 above.
For orientation: Formazan colour is commonly taken as a measure of viable cells.

The test system of assay [2] is SKOV3 Ovarian Cancer Cell Line. The experiment in a line: MTT cytotoxicity assay, transfected SKOV3 cells plus chemotherapeutic drug. As to conditions: for EC50 / fold change of EC50, Prohibitin vs Control: SKOV3 cells; for fold change of EC50, Prohibitin vs Control: direction IS/IR in same cell (E54); for IC50: Homo sapiens, SK-OV-3, SKOV3 cells. On the procedure: as §1
as §2, with “RNA-transfected” for “Cell survival was determined using the MTT cytotoxicity assay (see, e.g., Tokuyama et al. (2005) Anticancer Res. 25(1A): 17-22). RNA-transfected”, “drugs.” for “drugs. Doxorubicin (adriamycin), cisplatinum, taxol, vinblastin, vincristin, and mitoxantrone were all purchased from Sigma Corp. (St. Louis, Mo.).”
Each table summarizes the results of an individual experiment performed in triplicate.

Assay [3] deals with MDA Breast Cancer Cell Line. Kind of assay: MTT cytotoxicity assay, transfected MDA cells plus chemotherapeutic drug. As to conditions: for EC50 / fold change of EC50, Prohibitin vs Control / IC50: MDA cells; for sensitivity to drug of prohibitin siRNA treated cells compared to mock-treated cells / sensitivity to drug of prohibitin siRNA treated cells compared to controls / sensitivity to drug of prohibitin siRNA treated cells compared to mock controls: MDA; for sensitivity to drug of prohibitin siRNA treated cells compared to mock-treated cells: FIG. 9A-9H; for IC50: Homo sapiens. Here is the method: as §1
as §2, with “RNA-transfected” for “Cell survival was determined using the MTT cytotoxicity assay (see, e.g., Tokuyama et al. (2005) Anticancer Res. 25(1A): 17-22). RNA-transfected”, “drugs.” for “drugs. Doxorubicin (adriamycin), cisplatinum, taxol, vinblastin, vincristin, and mitoxantrone were all purchased from Sigma Corp. (St. Louis, Mo.).”

The mark [4] stands for this setting: MCF-7 cells, prohibitin (siRNA) transfected, Table 9, read-out: EC50, Prohibitin.
Where [5] appears, read: mock-transfected control, Table 10 experiment, read-out: EC50, Control.
Setting [6] is: mock-transfected control, Table 11 experiment, read-out: EC50, Control.
Where [7] appears, read: prohibitin (siRNA) transfected, Table 10 experiment, read-out: EC50, Prohibitin.
Setting [8] is: prohibitin (siRNA) transfected, Table 11 experiment, read-out: EC50, Prohibitin.
The mark [9] stands for this setting: mock-transfected control, Table 3 experiment, read-out: EC50, Control.
The mark [10] stands for this setting: mock-transfected control, Table 4 experiment, read-out: EC50, Control.
The mark [11] stands for this setting: mock-transfected control, Table 5 experiment, read-out: EC50, Control.
Setting [12] is: mock-transfected control, Table 6 experiment, read-out: EC50, Control.
The mark [13] stands for this setting: mock-transfected control, Table 7 experiment, read-out: EC50, Control.
The mark [14] stands for this setting: mock-transfected control, Table 8 experiment, read-out: EC50, Control.
[15] abbreviates: prohibitin (siRNA) transfected, Table 3 experiment, read-out: EC50, Prohibitin.
Setting [16] is: prohibitin (siRNA) transfected, Table 4 experiment, read-out: EC50, Prohibitin.
Where [17] appears, read: prohibitin (siRNA) transfected, Table 5 experiment, read-out: EC50, Prohibitin.
The mark [18] stands for this setting: prohibitin (siRNA) transfected, Table 6 experiment, read-out: EC50, Prohibitin.
[19] abbreviates: prohibitin (siRNA) transfected, Table 7 experiment, read-out: EC50, Prohibitin.
[20] abbreviates: prohibitin (siRNA) transfected, Table 8 experiment, read-out: EC50, Prohibitin.
Setting [21] is: Table 3 experiment, direction IS/IR in same cell (E6).
[22] abbreviates: Table 4 experiment, direction IS/IR in same cell (E12).
Setting [23] is: Table 6 experiment, direction IS/IR in same cell (E24).
Setting [24] is: Table 7 experiment, direction IS/IR in same cell (E30).

Where two headings read alike, the source gives them in different places.

Broadly, the EC50 is the concentration giving half of the maximal effect. Consider `N.N.[Cl][Pt][Cl]` [Cisplatinum], for which the EC50 in assay [1] (MCF-7 cells, mock-transfected control, Table 9, read-out: EC50, Control) is 118 µM; in assay [1] (setting [4]), 151 µM; in assay [2] (setting [5]), 22.4 µM; in assay [2] (setting [6]), 50 µM; in assay [2] (setting [7]), 26.3 µM; in assay [2] (setting [8]), 68.8 µM. Moreover, the 50% effective concentration (EC50) was found to be 255 µM in assay [3] (setting [9]); 374 µM in assay [3] (setting [10]); 94.3 µM in assay [3] (setting [11]); 164 µM in assay [3] (setting [12]); 76.8 µM in assay [3] (setting [13]); 29.3 µM in assay [3] (setting [14]). For the same compound, the half-maximal effective concentration (EC50) in assay [3] (setting [15]) was 189 µM; in assay [3] (setting [16]), 271 µM; in assay [3] (setting [17]) it was 124 µM; in assay [3] (setting [18]), 189 µM; in assay [3] (setting [19]) it was 54.5 µM; in assay [3] (setting [20]), 57 µM. Moreover, in assay [1] (MCF-7 cells, Table 9), the “change in sensitivity to the drug, Prohibitin vs Control” value was “IR (IR: “increased in resistance” to the drug)”. Also, the “fold change of EC50, Prohibitin vs Control” value (“fold change of EC50” for short) in assay [1] (MCF-7 cells, Table 9) came to 1.3 x; in assay [2] (Table 11 experiment), 1.4 x; in assay [3] (setting [21]), 1.2 x; in assay [3] (setting [22]) it was 1.4 x; in assay [3] (Table 5 experiment, direction IS/IR in same cell (E18)) it was 1.3 x; in assay [3] (setting [23]), 1.1 x. Further, the “fold change of EC50” value in assay [3] (setting [24]) was found to be 1.4 x; in assay [3] (Table 8 experiment, direction IS/IR in same cell (E36)), 1.9 x. The “sensitivity to drug of prohibitin siRNA treated cells compared to mock-treated cells” value in assay [3] is listed as “increased sensitivity”. The “sensitivity to drug of prohibitin siRNA treated cells compared to controls” value (from here on “sensitivity to drug … compared to controls”) in assay [3] (FIGS. 10A-10H) is recorded as “more sensitive”. The “sensitivity to drug of prohibitin siRNA treated cells compared to mock controls” value (from here on “sensitivity to drug … compared to mock controls”) in assay [3] (FIGS. 13A-13H) was “increased sensitivity”.

Turning to `CC(=O)O[C@@]12CO[C@@H]1C[C@H](O)[C@@]1(C)C(=O)[C@H](O)C3=C(C)[C@@H](OC(=O)[C@H](O)[C@@H](NC(=O)OC(C)(C)C)c4ccccc4)C[C@@](O)([C@@H](OC(=O)c4ccccc4)[C@H]21)C3(C)C` [Docetaxel], the “sensitivity to drug of prohibitin siRNA treated cells” value in assay [1] is “more sensitive”. In addition, the EC50 in assay [1] (setting [4]) stood at 0.00534 µM. Moreover, the “fold change of EC50” value in assay [1] (MCF-7 cells, Table 9) is 13.8 x.

As for `COc1cccc2c1C(=O)c1c(O)c3c(c(O)c1C2=O)C[C@@](O)(C(=O)CO)C[C@@H]3O[C@H]1C[C@H](N)[C@H](O)[C@H](C)O1` [Doxorubicin], in assay [1], the “sensitivity to drug of prohibitin siRNA treated cells” value is given as “more sensitive”. In addition, the EC50 in assay [1] (setting [4]) is 0.03 µM; in assay [2] (setting [7]) it was 0.0128 µM; in assay [2] (setting [8]), 1.23e-05 µM; in assay [3] (setting [15]), 0.00173 µM; in assay [3] (setting [16]) it was 0.00125 µM; in assay [3] (setting [17]), 0.000993 µM. The EC50 in assay [3] (setting [18]) worked out at 0.00172 µM; in assay [3] (setting [20]), 0.000139 µM. The IC50 turned out to be 21.3 nM in assay [2] (setting [5]); 0.0265 nM in assay [2] (setting [6]); 0.00146 µM in assay [3] (setting [9]); 0.000873 µM in assay [3] (setting [10]); 0.00175 µM in assay [3] (setting [11]); 0.00225 µM in assay [3] (setting [12]). Further, the values for the IC50 in assay [3] (setting [13]) and in assay [3] (setting [14]) were 0.000232 µM and 0.000177 µM, respectively. In assay [3] (FIG. 11A), the “sensitivity to drug … compared to controls” value is “increased sensitivity”. Besides, the “sensitivity to drug … compared to mock controls” value in assay [3] (FIGS. 13A-13H) was “increased sensitivity”; in assay [3] (FIGS. 14A-14H) it was “more sensitive”.

In the case of `COc1cc([C@@H]2c3cc4c(cc3[C@@H](O[C@@H]3O[C@@H]5CO[C@@H](C)O[C@H]5[C@H](O)[C@H]3O)[C@H]3COC(=O)[C@H]23)OCO4)cc(OC)c1O` [Etoposide], the concentration for a half-maximal effect (EC50) in assay [1] (Homo sapiens, MCF7, MCF-7 cells, prohibitin (siRNA) transfected, Table 9, read-out: EC50, Prohibitin) was found to be 7.28 µM; in assay [2] (setting [7]), 0.611 µM; in assay [2] (setting [8]), 0.241 µM. The “sensitivity to drug of prohibitin siRNA treated cells” value in assay [1] is “more sensitive”. The “fold change of EC50” value stood at 2.2 x in assay [1] (MCF-7 cells, Table 9) and 1.3 x in assay [3] (setting [22]). Moreover, the IC50 in assay [2] (setting [5]) turned out to be 621 nM; in assay [2] (setting [6]), 148 nM; in assay [3] (setting [9]), 78.9 µM; in assay [3] (setting [10]), 83.9 µM; in assay [3] (setting [13]), 9.56 µM; in assay [3] (setting [14]), 9.31 µM. Moreover, the IC50 in assay [3] (setting [15]) amounted to 76.5 µM; in assay [3] (setting [16]) it was 63 µM; in assay [3] (setting [19]) it was 10 µM; in assay [3] (setting [20]) it was 9.64 µM. In assay [3] (FIGS. 10A-10H), the “sensitivity to drug … compared to controls” value is “more sensitive”.

As to `S=P(N1CC1)(N1CC1)N1CC1` [Thiotepa], the IC50 in assay [2] (setting [5]) amounted to 35000 nM; in assay [2] (setting [6]), 16500 nM; in assay [3] (setting [9]), 600 µM; in assay [3] (setting [10]), 510 µM; in assay [3] (setting [12]), 628 µM; in assay [3] (setting [13]) it was 146 µM. Moreover, the IC50 was found to be 159 µM in assay [3] (setting [14]); 475 µM in assay [3] (setting [15]); 291 µM in assay [3] (setting [16]); 527 µM in assay [3] (setting [18]); 97.1 µM in assay [3] (setting [19]); 164 µM in assay [3] (setting [20]). The half-maximal effective concentration (EC50) in assay [2] (setting [7]) amounted to 24.9 µM; in assay [2] (setting [8]), 13.9 µM. Also, the “fold change of EC50” value was determined as 1.2 x in assay [2] (Table 11 experiment); 1.3 x in assay [3] (setting [21]); 1.7 x in assay [3] (setting [22]); 1.2 x in assay [3] (setting [23]); 1.5 x in assay [3] (setting [24]). For the same compound, the “sensitivity to drug of prohibitin siRNA treated cells compared to mock-treated cells” value in assay [3] was “increased sensitivity”. Also, the “sensitivity to drug … compared to controls” value in assay [3] (FIGS. 10A-10H) was “more sensitive”. For the same compound, the “sensitivity to drug … compared to mock controls” value in assay [3] (FIGS. 12A-12D) is recorded as “increased sensitivity”; in assay [3] (FIGS. 13A-13H) it was “increased the sensitivity”.

Take `CC[C@]1(O)C[C@@H]2CN(CCc3c([nH]c4ccccc34)[C@@](C(=O)OC)(c3cc4c(cc3OC)N(C)[C@H]3[C@@](O)(C(=O)OC)[C@H](OC(C)=O)[C@]5(CC)C=CCN6CC[C@]43[C@@H]65)C2)C1` [Vinblastin]: the EC50 in assay [3] (setting [11]) was 0.157 µM; in assay [3] (setting [17]) it was 2.55 µM.

The record behind these values is patent US20070122830A1, “Prohibitin-directed diagnostics and therapeutics for cancer and chemotherapeutic drug resistance” (Aurelium BioPharma Inc., priority 2005, published 2007).
